Data on 11 compounds can be found in patent publication US20050171350A1, “Benzhydryl derivatives” (Fujisawa Pharamaceutical Co., Ltd., priority 2001, published 2005).

System in the first data set: not given
Assay: not given
Settings: not given
Consider `CCOc1nc(OC)nc(OC)c1CN1C[C@@H]2CN(C(=O)CO)CCN2[C@H](C(c2ccccc2)c2ccccc2)C1.Cl.Cl`, for which the melting point (usually the temperature of the solid-liquid transition) is 150 to 152 °C (dec.).

As for `COc1nc(OC)c(CN2C[C@@H]3CN(C(=O)CO)CCN3[C@H](C(c3ccccc3)c3ccccc3)C2)c(OC2CCC2)n1.Cl.Cl`, the melting point was 141 to 145 °C.

As for `COc1nc(C)nc(OC)c1CN1C[C@@H]2CN(C(=O)CO)CCN2[C@H](C(c2ccccc2)c2ccccc2)C1.Cl.Cl`, the melting point is 129 to 132 °C.

On to `COc1nc(OC)c(CN2C[C@@H]3CN(C(=O)CO)CCN3[C@H](C(c3ccccc3)c3ccccc3)C2)c(OC(C)C)n1.Cl.Cl`, for which the melting point is 145 to 148 °C (dec.).

As to `COc1nc(Cl)c(CN2C[C@@H]3CN(C(=O)CO)CCN3[C@H](C(c3ccccc3)c3ccccc3)C2)c(OC)n1.Cl.Cl`, the melting point is 98 to 101 °C (dec.).

For `COc1nc(Cl)nc(OC)c1CN1C[C@@H]2CN(C(=O)CO)CCN2[C@H](C(c2ccccc2)c2ccccc2)C1.Cl.Cl`, the melting point was 150 to 155 °C (dec.).

Consider `COc1nc(OC)c(CN2C[C@@H]3CN(C(=O)CO)CCN3[C@H](C(c3ccccc3)c3ccccc3)C2)c(OCC(F)F)n1.Cl.Cl`, for which the melting point was in the range of 143 to 146 °C.

In turn, `COc1nc(C)c(CN2C[C@@H]3CN(C(=O)CO)CCN3[C@H](C(c3ccccc3)c3ccccc3)C2)c(OC)n1.Cl.Cl` had a melting point of 174 to 177 °C.

As to `COc1nc(OC)c(CN2C[C@@H]3CN(C(=O)N4CCOCC4)CCN3[C@H](C(c3ccccc3)c3ccccc3)C2)c(OC)n1.Cl.Cl`, the melting point lay within 139 to 143 °C.

`COc1nc(OC)c(CN2C[C@@H]3CN(C(=O)c4cccnc4)CCN3[C@H](C(c3ccccc3)c3ccccc3)C2)c(OC(C)C)n1.Cl.Cl.Cl` had a melting point of 143 to 147 °C.

Take `COc1nc(OC)c(CN2C[C@@H]3CN(C(=O)CO)CCN3[C@H](C(c3ccccc3)c3ccccc3)C2)c(OC)n1.Cl.Cl` [Example 1, 2-[(6R, 9aR)-6-benzhydryl-8-[(2,4,6-trimethoxy-5-pyrimidinyl)methyl]octahydro-2H-pyrazino[1,2-a]pyrazin-2-yl]-2-oxoethanol dihydrochloride]: the melting point was 155 to 158 °C (dec.).

For a further data set, the system named is emesis in the dog. Kind of data set: Emesis in the Dog (apomorphine-induced retching and vomiting). Particulars: adult female dogs; test compound i.v. at the dose of 1.0 mg/kg; 5 min later subcutaneous apomorphine (0.1 mg/0.5 ml/kg); observed for 60 min. The data set is classed as in vivo. How it is done:
Individually housed adult female dogs (8 to 15 kg) were given an i.v. injection of a solution containing a test compound. 5 Min later the emetic responses (retching and vomiting) were induced by administration of subcutaneous apomorphine (0.1 mg/0.5 ml/kg) and observed for the next 60 min. The timing and number of retches and vomits observed were recorded for each animal. An individual animal was tested with at least 10 days between experiments.
`COc1nc(OC)c(CN2C[C@@H]3CN(C(=O)CO)CCN3[C@H](C(c3ccccc3)c3ccccc3)C2)c(OC)n1.Cl.Cl` [Example 1, 2-[(6R, 9aR)-6-benzhydryl-8-[(2,4,6-trimethoxy-5-pyrimidinyl)methyl]octahydro-2H-pyrazino[1,2-a]pyrazin-2-yl]-2-oxoethanol dihydrochloride]: the “inhibition rate of emesis in the dog” value came to 100%.
